Source: the OligoGym collection
Several values for one entry are separate records, joined by “and”; a condition that tells them apart may be missing. Equal values may be shown once. HELM strings list units from the 5' end as sugar, base in round brackets, then linkage (d deoxyribose, r ribose, m 2'-O-methyl, p phosphodiester). Strings are as the collection lists them; they lack the last nucleoside at the 3' end of the tested compound. [moe] = 2'-O-(2-methoxyethyl) (MOE); [sp] = phosphorothioate linkage; [m5C] = 5-methylcytosine

These substances were tested against SMN2 (assay: mouse, dose not given). Conditions: ASO.

Row | Substance | 3 h FOB score
1 | RNA1{[moe]([m5C])[sp].[moe](A)[sp].[moe]([m5C])[sp].[moe](T)[sp].[moe](T)[sp].[moe](T)[sp].[moe]([m5C])[sp].[moe](A)[sp].[moe](T)p.[moe](A)p.[moe](A)p.[moe](T)p.[moe](G)[sp].[moe]([m5C])[sp].[moe](T)[sp].[moe](G)[sp].[moe](G)}$$$$ (last 3' nucleoside missing) | 0 score 0-7
2 | RNA1{[moe](T)p.[moe](T)[sp].[moe]([m5C])[sp].[moe](A)[sp].[moe]([m5C])[sp].[moe](T)[sp].[moe](T)[sp].[moe](T)[sp].[moe]([m5C])[sp].[moe](A)[sp].[moe](T)[sp].[moe](A)[sp].[moe](A)[sp].[moe](T)[sp].[moe](G)[sp].[moe]([m5C])[sp].[moe](T)[sp].[moe](G)}$$$$ (last 3' nucleoside missing) | 4 score 0-7
3 | RNA1{[moe](A)[sp].[moe]([m5C])[sp].[moe](T)[sp].[moe](T)[sp].[moe](T)[sp].[moe]([m5C])[sp].[moe](A)[sp].[moe](T)[sp].[moe](A)[sp].[moe](A)[sp].[moe](T)[sp].[moe](G)[sp].[moe]([m5C])[sp].[moe](T)[sp].[moe](G)[sp].[moe](G)[sp].[moe]([m5C])[sp].[moe](A)}$$$$ (last 3' nucleoside missing) | 0 score 0-7
4 | RNA1{[moe]([m5C])[sp].[moe](T)[sp].[moe](T)[sp].[moe](T)[sp].[moe]([m5C])[sp].[moe](A)[sp].[moe](T)[sp].[moe](A)[sp].[moe](A)p.[moe](T)p.[moe](G)p.[moe]([m5C])p.[moe](T)[sp].[moe](G)[sp].[moe](G)}$$$$ (last 3' nucleoside missing) | 0 score 0-7
5 | RNA1{[moe]([m5C])[sp].[moe](A)[sp].[moe]([m5C])p.[moe](T)[sp].[moe](T)[sp].[moe](T)[sp].[moe]([m5C])[sp].[moe](A)[sp].[moe](T)p.[moe](A)[sp].[moe](A)[sp].[moe](T)[sp].[moe](G)[sp].[moe]([m5C])[sp].[moe](T)p.[moe](G)[sp].[moe](G)}$$$$ (last 3' nucleoside missing) | 0 score 0-7
6 | RNA1{[moe]([m5C])[sp].[moe](A)p.[moe]([m5C])[sp].[moe](T)[sp].[moe](T)[sp].[moe](T)[sp].[moe]([m5C])[sp].[moe](A)[sp].[moe](T)[sp].[moe](A)[sp].[moe](A)[sp].[moe](T)p.[moe](G)[sp].[moe]([m5C])[sp].[moe](T)[sp].[moe](G)[sp].[moe](G)}$$$$ (last 3' nucleoside missing) | 0 score 0-7
7 | RNA1{[moe](A)[sp].[moe]([m5C])[sp].[moe](T)[sp].[moe](T)[sp].[moe](T)[sp].[moe]([m5C])[sp].[moe](A)[sp].[moe](T)[sp].[moe](A)p.[moe](A)p.[moe](T)p.[moe](G)p.[moe]([m5C])[sp].[moe](T)[sp].[moe](G)[sp].[moe](G)}$$$$ (last 3' nucleoside missing) | 0 score 0-7
8 | RNA1{[moe](A)[sp].[moe]([m5C])[sp].[moe](T)[sp].[moe](T)[sp].[moe](T)[sp].[moe]([m5C])p.[moe](A)p.[moe](T)p.[moe](A)p.[moe](A)p.[moe](T)p.[moe](G)[sp].[moe]([m5C])[sp].[moe](T)[sp].[moe](G)[sp].[moe](G)}$$$$ (last 3' nucleoside missing) | 0 score 0-7
9 | RNA1{[moe](A)[sp].[moe]([m5C])[sp].[moe](T)p.[moe](T)[sp].[moe](T)[sp].[moe]([m5C])[sp].[moe](A)p.[moe](T)[sp].[moe](A)[sp].[moe](A)[sp].[moe](T)p.[moe](G)[sp].[moe]([m5C])[sp].[moe](T)p.[moe](G)[sp].[moe](G)}$$$$ (last 3' nucleoside missing) | 0 score 0-7
10 | RNA1{[moe](A)[sp].[moe]([m5C])[sp].[moe](T)p.[moe](T)[sp].[moe](T)[sp].[moe]([m5C])[sp].[moe](A)[sp].[moe](T)[sp].[moe](A)[sp].[moe](A)[sp].[moe](T)[sp].[moe](G)[sp].[moe]([m5C])[sp].[moe](T)p.[moe](G)[sp].[moe](G)}$$$$ (last 3' nucleoside missing) | 0 score 0-7
11 | RNA1{[moe](A)[sp].[moe](T)[sp].[moe](T)[sp].[moe]([m5C])[sp].[moe](A)[sp].[moe]([m5C])[sp].[moe](T)[sp].[moe](T)[sp].[moe](T)[sp].[moe]([m5C])[sp].[moe](A)[sp].[moe](T)[sp].[moe](A)[sp].[moe](A)[sp].[moe](T)[sp].[moe](G)p.[moe]([m5C])p.[moe](T)[sp].[moe](G)}$$$$ (last 3' nucleoside missing) | 3 score 0-7
12 | RNA1{[moe](A)[sp].[moe]([m5C])p.[moe](T)p.[moe](T)[sp].[moe](T)[sp].[moe]([m5C])[sp].[moe](A)[sp].[moe](T)[sp].[moe](A)[sp].[moe](A)[sp].[moe](T)[sp].[moe](G)[sp].[moe]([m5C])p.[moe](T)p.[moe](G)[sp].[moe](G)}$$$$ (last 3' nucleoside missing) | 0 score 0-7
13 | RNA1{[moe]([m5C])[sp].[moe](A)p.[moe]([m5C])p.[moe](T)p.[moe](T)[sp].[moe](T)[sp].[moe]([m5C])[sp].[moe](A)[sp].[moe](T)[sp].[moe](A)[sp].[moe](A)[sp].[moe](T)[sp].[moe](G)[sp].[moe]([m5C])p.[moe](T)p.[moe](G)[sp].[moe](G)}$$$$ (last 3' nucleoside missing) | 0 score 0-7
14 | RNA1{[moe](T)p.[moe](T)[sp].[moe]([m5C])[sp].[moe](A)[sp].[moe]([m5C])[sp].[moe](T)[sp].[moe](T)[sp].[moe](T)[sp].[moe]([m5C])[sp].[moe](A)[sp].[moe](T)[sp].[moe](A)[sp].[moe](A)[sp].[moe](T)[sp].[moe](G)[sp].[moe]([m5C])[sp].[moe](T)[sp].[moe](G)[sp].[moe](G)}$$$$ (last 3' nucleoside missing) | 3.25 score 0-7
15 | RNA1{[moe]([m5C])[sp].[moe](T)[sp].[moe](T)[sp].[moe](T)[sp].[moe]([m5C])[sp].[moe](A)p.[moe](T)p.[moe](A)p.[moe](A)p.[moe](T)p.[moe](G)p.[moe]([m5C])[sp].[moe](T)[sp].[moe](G)[sp].[moe](G)}$$$$ (last 3' nucleoside missing) | 0.75 score 0-7
16 | RNA1{[moe](T)[sp].[moe]([m5C])[sp].[moe](A)[sp].[moe]([m5C])[sp].[moe](T)[sp].[moe](T)[sp].[moe](T)[sp].[moe]([m5C])[sp].[moe](A)[sp].[moe](T)[sp].[moe](A)[sp].[moe](A)[sp].[moe](T)[sp].[moe](G)p.[moe]([m5C])p.[moe](T)[sp].[moe](G)}$$$$ (last 3' nucleoside missing) | 3.5 score 0-7
17 | RNA1{[moe]([m5C])[sp].[moe](A)[sp].[moe]([m5C])[sp].[moe](T)[sp].[moe](T)p.[moe](T)[sp].[moe]([m5C])[sp].[moe](A)[sp].[moe](T)[sp].[moe](A)[sp].[moe](A)[sp].[moe](T)[sp].[moe](G)[sp].[moe]([m5C])[sp].[moe](T)[sp].[moe](G)[sp].[moe](G)}$$$$ (last 3' nucleoside missing) | 0.5 score 0-7
18 | RNA1{[moe]([m5C])[sp].[moe](A)[sp].[moe]([m5C])[sp].[moe](T)[sp].[moe](T)p.[moe](T)p.[moe]([m5C])p.[moe](A)p.[moe](T)[sp].[moe](A)[sp].[moe](A)[sp].[moe](T)[sp].[moe](G)[sp].[moe]([m5C])[sp].[moe](T)[sp].[moe](G)[sp].[moe](G)}$$$$ (last 3' nucleoside missing) | 0 score 0-7
19 | RNA1{[moe](T)[sp].[moe](T)[sp].[moe]([m5C])[sp].[moe](A)[sp].[moe]([m5C])[sp].[moe](T)[sp].[moe](T)[sp].[moe](T)[sp].[moe]([m5C])p.[moe](A)[sp].[moe](T)[sp].[moe](A)[sp].[moe](A)[sp].[moe](T)[sp].[moe](G)[sp].[moe]([m5C])[sp].[moe](T)[sp].[moe](G)}$$$$ (last 3' nucleoside missing) | 3.75 score 0-7
20 | RNA1{[moe](A)[sp].[moe]([m5C])[sp].[moe](T)[sp].[moe](T)[sp].[moe](T)[sp].[moe]([m5C])[sp].[moe](A)[sp].[moe](T)[sp].[moe](A)[sp].[moe](A)[sp].[moe](T)[sp].[moe](G)[sp].[moe]([m5C])[sp].[moe](T)[sp].[moe](G)[sp].[moe](G)}$$$$ (last 3' nucleoside missing) | 1.12 score 0-7
21 | RNA1{[moe]([m5C])[sp].[moe](A)[sp].[moe]([m5C])[sp].[moe](T)[sp].[moe](T)[sp].[moe](T)[sp].[moe]([m5C])p.[moe](A)p.[moe](T)p.[moe](A)p.[moe](A)[sp].[moe](T)[sp].[moe](G)[sp].[moe]([m5C])[sp].[moe](T)[sp].[moe](G)[sp].[moe](G)}$$$$ (last 3' nucleoside missing) | 0 score 0-7
22 | RNA1{[moe](T)[sp].[moe]([m5C])[sp].[moe](A)[sp].[moe]([m5C])[sp].[moe](T)[sp].[moe](T)[sp].[moe](T)[sp].[moe]([m5C])[sp].[moe](A)[sp].[moe](T)[sp].[moe](A)[sp].[moe](A)[sp].[moe](T)p.[moe](G)[sp].[moe]([m5C])p.[moe](T)[sp].[moe](G)[sp].[moe](G)}$$$$ (last 3' nucleoside missing) | 1 score 0-7 and 2 score 0-7 and 1.25 score 0-7 (2×)
23 | RNA1{[moe](T)[sp].[moe](T)p.[moe]([m5C])[sp].[moe](A)[sp].[moe]([m5C])[sp].[moe](T)[sp].[moe](T)[sp].[moe](T)[sp].[moe]([m5C])[sp].[moe](A)[sp].[moe](T)[sp].[moe](A)[sp].[moe](A)[sp].[moe](T)[sp].[moe](G)[sp].[moe]([m5C])p.[moe](T)[sp].[moe](G)}$$$$ (last 3' nucleoside missing) | 1 score 0-7
24 | RNA1{[moe](T)[sp].[moe]([m5C])[sp].[moe](A)[sp].[moe]([m5C])[sp].[moe](T)[sp].[moe](T)[sp].[moe](T)[sp].[moe]([m5C])[sp].[moe](A)[sp].[moe](T)[sp].[moe](A)[sp].[moe](A)p.[moe](T)[sp].[moe](G)p.[moe]([m5C])[sp].[moe](T)[sp].[moe](G)}$$$$ (last 3' nucleoside missing) | 2.5 score 0-7
